Measured values as given in US10799439B2, “Coating of clay micro-tubes on surfaces of hair and natural fibers” (Louisiana Tech Research Corporation, priority 2017, dated 2020).

Experiment: dye/drug loading of halloysite micro-tubes (TGA)
Assay type: physicochemical
Conditions: SDS-hydrophobized halloysite lumen
Experimental: One example method of loading the micro-tubes with a (substantially) water soluble hair dye agent uses the dye Indigo carmine. The Indigo carmine dye is dissolved in 1 mL of DI water at a ratio of 4% by weight (i.e., 40 mg of dye) under sonication. 40 mg of halloysite is added to the dispersion and sonicated until a homogeneous dispersion is obtained. The dispersion is place under a low vacuum (e.g., at approximately 1 psi or less) for three cycles, one hour for each cycle. The halloysite is then thoroughly washed with DI water five time by centrifuging at 10,600 rcf for three minutes. The washed halloysite was then dried in a hot air oven at 60° C. This procedure produced a 6 to 8 weight percent dye loading efficiency, i.e., weight of dye with respect to the weight of clay micro-tubes. However, different procedures may be used and generally it is desirable to generate micro-tubes loaded to about 5 to 10 weight percent dye loading efficiency, but in other embodiments, the loading efficiency could be between 2 to 35 weight percent (or any sub-range in between, with one specific example being 2% to 15%).
One example method of loading the micro-tubes with a (substantially) water insoluble hair dye agent uses the dye Lawsone. It is preferable to modify the halloysite lumen surface to allow more ready binding of nonpolar molecules. […]

Structure (SMILES): CC1(C)C(C=C(Cl)Cl)C1C(=O)OCc1cccc(Oc2ccccc2)c1 (stereo not shown) [permethrin, Permethrin]
- content in loaded nanotubes (TGA analysis): 3-5 wt. %
